These results are taken from ChEMBL document CHEMBL1146432, “Bengamides and Related New Amino Acid Derivatives from the New Caledonian Marine Sponge Jaspis carteri” (J Nat Prod, 1997).

This experiment concerns Candida. The experiment is described as follows: Antifungal activity against Candida at 100 ug/mL. In kind it is functional, organism-based.

Activity calls are given as the source filed them. The rule behind the calls is not given here.

With `CCCCCCCCCCCCC(=O)O[C@H]1CC[C@H](NC(=O)[C@H](OC)[C@H](O)[C@@H](O)[C@H](O)/C=C/C(C)C)C(=O)NC1`, the result was inactive.

Turning to `CCCCCCCCCCCCCCC(=O)O[C@H]1CC[C@H](NC(=O)[C@H](OC)[C@H](O)[C@@H](O)[C@H](O)/C=C/C(C)C)C(=O)NC1`, the outcome was inactive.

Take `CO[C@H]1C(=O)O[C@@H]([C@H](O)/C=C/C(C)C)[C@H]1O`: the outcome was inactive.

On to `CCCCCCCCCCCCC(=O)O[C@H]1CC[C@H](NC(=O)[C@H](OC)[C@H](O)[C@@H](O)[C@H](O)/C=C/C(C)C)C(=O)N(C)C1`, for which the result was inactive.

As for `CCCCCCCCCCCCCC(=O)O[C@H]1CC[C@H](NC=O)C(=O)N(C)C1`, the outcome was inactive.

Turning to `CCCCCCCCCCCCCC(=O)O[C@H]1CC[C@H](NC(=O)[C@H](OC)[C@H](O)[C@@H](O)[C@H](O)/C=C/C(C)C)C(=O)NC1`, the outcome was inactive.

As to `CCCCCCCCCCCCCCC(=O)O[C@H]1CC[C@H](NC(=O)[C@H](OC)[C@H](O)[C@@H](O)[C@H](O)/C=C/C(C)C)C(=O)N(C)C1`, the result was inactive.

With `CCCCCCCCCCCCCC(=O)O[C@H]1CC[C@H](NC(=O)[C@H](OC)[C@H](O)[C@@H](O)[C@H](O)/C=C/C(C)C)C(=O)N(C)C1`, the outcome was inactive.
